# From patent publication US20240335404A1, “SUBSTITUTED ESTERS CONTAINING POLYOLS AND SACCHARIDES FOR TREATING HEPATOTOXICITY AND FATTY LIVER DISEASES” (SINEW PHARMA INC., priority 2015, published 2024)
# Tested on: fatty liver
# Assay: High fat diet-induced fatty liver in B6 mice
# Type: in vivo
# Conditions: HFD mice; for GSH / Gpx / Grd / SOD: liver; for ALT / AST / TC in liver / TG in liver: administration period of 4 weeks; for liver TC / liver TG: 4 or 8 weeks; for ALT and AST values: compounds administered separately
# Description: More than four mice were used in each group of the pre-test, while more than twelve mice were used in each group of the confirmatory test. […] The animal test was carried out according to the guideline for animal experiment of National Health Research Institutes. […] The weight of mice was recorded once a week. The tested animals were grouped randomly into Blank, High Fat Diet control (HFD), Positive Control (PS), and Test group. The animals of Blank were fed with normal feed. The animals of HFD were fed with high fat feed. […] The animals of Test group were fed with high fat feed, and additionally fed with test compounds by a tube. The animals of Blank were fed casually with normal feed for 12 weeks, while the animals of HFD, PS, and Test group were fed casually with high fat feed for 12 weeks. After 8 weeks of feeding, the animals of Blank and HFD were fed with deionized water by a tube once a day; the animals of PS were fed with silymarin by a tube once a day; and the animals of Test Group were fed with test compounds by a tube once a day for a duration of 4 or 8 weeks. Before testing and in the eighth, twelfth, and sixteenth week after testing, blood was collected from the cheek or the heart. At the end of testing, all mice were weighted and then sacrificed, and blood was collected from the cheek or the heart simultaneously. The blood specimens of mice rested at room temperature for one hour to clot, and then the serum was separated by centrifugation in a refrigeration centrifuge at 15,700×g at 4° C. for 5 minutes. Afterwards, biochemical indices of liver function, including aspartate transaminase (AST), alanine aminotransferase (ALT), triglyceride (TG), total cholesterol (TCHO/TC), low-density lipoprotein cholesterol (LDL-C), and high-density lipoprotein cholesterol (HDL-C), were detected by the automatic blood biochemistry analyzer. In addition, abdominal fat and liver specimens were taken from the abdomens of sacrificed mice and weighted to compare the weight of fat and liver and obtain the ratio of liver weight to body weight. […] The cut sections proceeded with H&E staining for histopathological observation. Moreover, the rest of the liver was frozen for preservation and detection of the contents of triglyceride and total cholesterol in the liver. Furthermore, the liver function of animals of each group were analyzed by Galactose Single Point Method, which was recognized and recommended for quantification of remaining liver function in clinical use by U.S. FDA and Ministry of Health and Welfare, Taiwan. […] One hour after the administration, about 0.5 ml of whole blood was taken by using a filter paper to evaluate liver function of mice. The higher the value of GSP was, the worse the remaining liver function would be. (FDA: “Guidance for Industry: Pharmacokinetics in Patients with Impaired. Hepatic Function-Study Design, Data Analysis and Impact on Dosing and. Labeling. 2003. At the end of the test, all mice were sacrificed. […] Afterwards, xylene was replaced with hot paraffin solution. At last, the tissue was embedded with paraffin solution. The finished paraffin specimen was cut into […] paraffin sections by the microtome. The sections were pasted on clean slides, dried at 37° C., and then stained by H&E staining. In order to observe the changes of lesion, fat accumulation, necrosis, or fibrosis in liver cells when there was an ongoing liver damage, liver tissues were H&E stained to evaluate the degree of liver fat accumulation. All the histopathological sections were cut from the same position on the largest right lobe of liver for eliminating bias in subjective observation, and then subject to pathological staining. As for the assessment of semi-quantitative analysis in pathology, it had to be confirmed by a physician or a veterinary pathologist who conducted a double-blind analysis to score (NAS score) and compare all the sections without knowing the test design. […]
# [1] = 1.5 mg/kg, test period of 4 weeks
# [2] = 4.5 mg/kg, test period of 4 weeks
# [3] = 7.5 mg/kg, test period of 4 weeks
smiles,measurement,setting,value
OC[C@@H](O)[C@@H](O)[C@H](O)[C@H](O)CO [Mannitol],weight of abdominal fat,,reduce the weight of abdominal fat in animals significantly
same,GSH,[1],1502.5 ± 276.9 U/L
same,Gpx,[1],2580.0 ± 555.2 U/L
same,Grd,[1],95.3 ± 22.1 U/L
same,SOD,[1],367.3 ± 35.6 U/L
same,GSH,[2],1605.1 ± 305.9 U/L
same,Gpx,[2],3423.3 ± 547.8 U/L
same,Grd,[2],110.1 ± 18.4 U/L
same,SOD,[2],429.2 ± 85.2 U/L
same,GSH,[3],2147.7 ± 459.1 U/L
same,Gpx,[3],3738.3 ± 665.1 U/L
same,Grd,[3],117.6 ± 32.0 U/L
same,SOD,[3],462.8 ± 52.8 U/L
same,Abdominal fat weight,1.5 mg/kg,2.0 ± 0.3 g
same,Increase of body weight,1.5 mg/kg,10.9 ± 7.4 g
same,Liver weight,1.5 mg/kg,1.4 ± 0.2 g
same,ALT,1.5 mg/kg,40.8 ± 11.4 U/L
same,AST,1.5 mg/kg,187.2 ± 142.1 U/L
same,TC in liver,1.5 mg/kg,3.4 ± 0.6 mg/g liver
same,TG in liver,1.5 mg/kg,61.8 ± 32.6 mg/g liver
same,Abdominal fat weight,4.5 mg/kg,2.7 ± 0.3 g
same,Increase of body weight,4.5 mg/kg,11.1 ± 7.7 g
same,Liver weight,4.5 mg/kg,1.4 ± 0.2 g
same,ALT,4.5 mg/kg,44.5 ± 15.9 U/L
same,AST,4.5 mg/kg,107.6 ± 54.3 U/L
same,TC in liver,4.5 mg/kg,7.2 ± 2.8 mg/g liver
same,TG in liver,4.5 mg/kg,71.5 ± 45.5 mg/g liver
same,Abdominal fat weight,7.5 mg/kg,2.4 ± 0.3 g
same,Increase of body weight,7.5 mg/kg,10.3 ± 8.5 g
same,Liver weight,7.5 mg/kg,1.4 ± 0.1 g
same,ALT,7.5 mg/kg,25.0 ± 10.8 U/L
same,AST,7.5 mg/kg,63.3 ± 7.7 U/L
same,TC in liver,7.5 mg/kg,4.7 ± 1.2 mg/g liver
same,TG in liver,7.5 mg/kg,53.8 ± 24.4 mg/g liver
same,NAS,[3],1.7 ± 0.8 mg/g liver
same,reduction in ALT value,"4-week treatment, p<0.005",about 64%
same,reduction in AST value,"4-week treatment, p<0.005",about 60%
same,liver TC,,reduce TC in liver significantly
same,liver TG,,reduce TG in liver significantly
same,liver antioxidant activity,4 weeks,improve antioxidant activity significantly
same,"liver damage, NAS",4 weeks,reduce liver damage significantly
same,ALT and AST values,,reduce ALT and AST values significantly
same,"liver tissue sections, H&E","treated for 4 weeks, FIG. 5",large vesicular fat droplets within liver cells in liver tissue section were significantly reduced
OC[C@H]1O[C@H](O[C@]2(CCl)O[C@H](CCl)[C@@H](O)[C@@H]2O)[C@H](O)[C@@H](O)[C@H]1Cl [Sucralose],weight of abdominal fat,,reduce the weight of abdominal fat in animals significantly
same,GSH,[1],1448.0 ± 281.5 U/L
same,Gpx,[1],2995.0 ± 651.1 U/L
same,Grd,[1],100.0 ± 18.6 U/L
same,SOD,[1],373.0 ± 50.4 U/L
same,GSH,[3],1609.1 ± 201.1 U/L
same,Gpx,[3],3334.0 ± 377.7 U/L
same,Grd,[3],90.4 ± 17.2 U/L
same,SOD,[3],399.0 ± 34.5 U/L
same,Abdominal fat weight,1.5 mg/kg,2.1 ± 0.6 g
same,Increase of body weight,1.5 mg/kg,17.0 ± 5.6 g
same,Liver weight,1.5 mg/kg,1.5 ± 0.2 g
same,ALT,1.5 mg/kg,30.9 ± 16.8 U/L
same,AST,1.5 mg/kg,127.0 ± 31.2 U/L
same,TC in liver,1.5 mg/kg,3.0 ± 0.9 mg/g liver
same,TG in liver,1.5 mg/kg,68.9 ± 37.5 mg/g liver
same,Abdominal fat weight,7.5 mg/kg,2.4 ± 0.3 g
same,Increase of body weight,7.5 mg/kg,8.3 ± 5.4 g
same,Liver weight,7.5 mg/kg,1.4 ± 0.1 g
same,ALT,7.5 mg/kg,32.3 ± 10.1 U/L
same,AST,7.5 mg/kg,74.3 ± 18.6 U/L
same,TC in liver,7.5 mg/kg,5.0 ± 0.9 mg/g liver
same,TG in liver,7.5 mg/kg,56.8 ± 20.0 mg/g liver
same,liver TC,,reduce TC in liver significantly
same,liver TG,,reduce TG in liver significantly
same,liver antioxidant activity,4 weeks,improve antioxidant activity significantly
same,ALT and AST values,,reduce ALT and AST values significantly
